Like-named read-outs stand apart in the source and are kept apart here.
Key:
[1] = molecular target: T1, KRAS G12C/SOS/c-Raf complex (Homo sapiens, UniProt P01116, G12C); assay: KRAS G12C/SOS/c-Raf complex formation inhibitory action (TR-FRET); type: biochemical; details: one hour at room temperature, read-out: IC50 (KRAS G12C/SOS/c-Raf complex formation inhibition)
T1 construct: Biotinylated AviTag-KRAS G12C (amino acid region 1-185, GDP)
Method: Evaluation of KRAS G12C/SOS/c-Raf Complex Formation Inhibitory Action
Human Recombinant KRAS G12C, SOS, and c-Raf protein were used, and with respect to the complex formation of these proteins, an inhibitory action of the test compound was examined through a time-resolved fluorescence resonance energy transfer (TR-FRET) method.
Biotinylated AviTag-KRAS G12C (amino acid region 1-185, GDP) (2.5 μL; 400 nM) dissolved in assay buffer (50 mM HEPES, 150 mM NaCl, 5 mM MgCl2, 0.05% Tween 20, pH 7.4) and test compound were added in a volume of 2.5 μL from 4,000 nM to 4 nM were added to 384 well plate (Corning Inc). Son of Sevenless (SOS) (amino acid region 564-1049, 2.5 μL; 1.3 μM) and c-Raf (amino acid region 51-131) GST containing GTP (Sigma-Aldrich Co. LLC) (2.5 μL; 130 nM and 4 μM of each) were added to the above mixture, and the resultant was left to stand for one hour at room temperature. Thereafter, a mixed solution (10 μL) of LANCE Ulight-anti-GST (120 nM, PerkinElmer. Co., Ltd) and LANCE Eu-W1024 labeled Streptoavidin (100 ng/mL, PerkinElmer. Co., Ltd) was added, and a fluorescence intensity on the condition of wavelength of 620 nm and 665 nm was measured by using EnVision 2103 Multilabel Reader (PerkinElmer Co., Ltd.) under the condition of excitation wavelength of 337 nm. […] In Tables, Ex represents Example numbers described later. In addition, in Tables, Compound C represents a test compound of Example I-59 disclosed in Pamphlet of International Publication No. WO 2016/164675, and the structures of Reference Example 1 and Reference Example 2 are indicated in Table 168 described below (the same shall apply hereinafter).

[2] = tested on: ERK phosphorylation (Thr 202/Tyr 204) in NCI-H1373 cells; assay: ERK phosphorylation inhibitory action in NCI-H1373 (Cell ELISA); type: cell-based, Human; details: Homo sapiens, NCI-H1373, 2 h, read-out: IC50 (ERK phosphorylation inhibition)
Method: Evaluation of ERK Phosphorylation Inhibitory Action with Respect to Human KRAS G12C Mutation Positive Non-Small Cell Lung Cancer Strain NCI-H1373
The ERK phosphorylation inhibitory action by the test compound was evaluated by measuring phosphorylation of 202th threonine (Thr 202) and 204th tyrosine (Tyr 204) of ERK on the downstream of the KRAS signal by Cell ELISA.
NCI-H1373 cells (ATCC, CRL-5866) were seeded in 384 well plates (Greiner bio-one) at 36 μL/well each so as to be 2×10^4 cell per well. Cell culture was performed under the conditions of temperature of 37° C. in the presence of 5% CO2 by using RPMI 1640 medium (Sigma-Aldrich Co. LLC) containing 10% fetal bovine serum (GE Life Sciences).
The next day, the test compounds (six points in a range of final concentration 1,000 nM to 0.3 nM), final concentration 1 μM of Trametinib (GlaxoSmithKline Inc.; MEK inhibitor) as a positive control, and DMSO which is a solvent of the test compound as a negative control were diluted 100-fold with fresh medium, 4 μL each was added to each well, and then cultured for 2 hours. Immediately after culturing, 30 μL of 30% glyoxal solution (Wako: 40% glyoxal diluted with Phosphate Buffered Saline (PBS; Wako)) was added to each well, and the cells were left to stand at room temperature for one hour to be fixed. Thereafter, the supernatant was removed by centrifuging the plate (110×g for 7 seconds, unless otherwise stated below under the same conditions), and 20 μL of PBS containing 0.1% Triton X-100 (Amersham Biosciences Corp.) was added to each well. After being left to stand at room temperature for 10 minutes, the supernatant was removed by centrifugation, and the same operation was repeated. Next, 20 μL of PBS containing 0.5% SDS (Invitrogen) was added to each well, and the mixture was left to stand at room temperature for 30 minutes, and then centrifuged to remove the supernatant. Subsequently, 20 μL of a blocking solution (ODYSSEY Blocking Buffer; LI-COR Biosciences) was added to each well, and left to stand at room temperature for one hour. The supernatant was removed by centrifugation, and 10 μL of a blocking solution prepared by diluting ERK (Thr 202/Tyr 204) of a phosphorylation antibody (Cell Signaling Technology, Inc.) as a primary antibody to be ½, 500 amount with respect to a stock solution was added to each well and was left to stand at 4° C. for overnight.
The next day, a reaction liquid is removed by centrifuging the plate, 20 μL of 0.05% Tween-20-containing PBS (Thermo Scientific; 20×PBS Tween-20 diluted 20-fold with ion exchanged water) was added to each well, and each well was washed by removing the supernatant by centrifugation. Washing was performed three times in total. After washing, 10 μL of a blocking solution prepared by diluting IRDye 800CW Goat anti-Rabbit IgG (LI-COR Biosciences) as a secondary antibody to be 1/1,000 amount with respect to a stock solution was added to each well and was left to stand at room temperature for one hour. The reaction liquid was removed by centrifuging the plate, and each well was washed three times with 0.05% Tween-20-containing PBS in the same manner as after primary antibody reaction. The centrifugation after the third wash was 171×g for 17 seconds. After removal of the cleaning solution, the plate was left to air dry at room temperature for three hours or more and the fluorescent signal at 800 nm was measured by Aerius (LI-COR Biosciences).
When a signal value at the time of adding DMSO was set as 0% inhibition, and a signal value at the time of adding 1 μM of Trametinib was set as 100% inhibition, a value of 50% inhibition (IC50) was calculated through Sigmoid-Emax model nonlinear regression analysis.

[3] = tested on: NCI-H1373 cells; assay: Anchorage-independent cell proliferation inhibitory action, NCI-H1373 spheroid three-dimensional culture; type: cell-based, Human; details: Homo sapiens, NCI-H1373, 144 h, read-out: IC50 (anchorage-independent cell proliferation inhibition)
Method: Evaluation of Anchorage-Independent Cell Proliferation Inhibitory Action with Respect to Human KRAS G12C Mutation Positive Non-Small Cell Lung Cancer Strain NCI-H1373
An anchorage-independent cell proliferation inhibitory action by the test compound was evaluated by a spheroid three-dimensional culture.
NCI-H1373 cells were seeded in cell low adsorption U bottom 384 well plates (Prime Surface: Sumitomo Bakelite Co., Ltd.) at 36 μL/well each so as to be 5×10^2 cell per well. The cell culture was performed under the same conditions as Test example 2.
The next day, the test compounds (six points in a range of final concentration 1,000 nM to 0.3 nM) and DMSO which is a solvent of the test compound as a negative control were diluted 100-fold with fresh medium, 4 μL each was added to each well. After culturing at 37° C. in the presence of 5% CO2 for six days, 20 μL of CellTiter Glo or to CellTiter Glo 2.0 (Promega Corporation) was added to each well. After stirring for one hour at room temperature using a plate mixer (FINEPCR), an emission signal was measured with ARVO X3 (PerkinElmer Co., Ltd.).
When a signal value in a DMSO treatment was set as 0% inhibition, and a signal value in cell-free medium only was set as 100% inhibition, a value of 50% inhibition (IC50) was calculated through Sigmoid-Emax model nonlinear regression analysis.

[4] = NCI-H1373 cells, cultured for 2 hours, 100% = 1 μM Trametinib
[5] = NCI-H1373 spheroid, six days, CellTiter Glo

T1 sequence (P01116 1-185 isoform P01116-2 G12C, one chain of several): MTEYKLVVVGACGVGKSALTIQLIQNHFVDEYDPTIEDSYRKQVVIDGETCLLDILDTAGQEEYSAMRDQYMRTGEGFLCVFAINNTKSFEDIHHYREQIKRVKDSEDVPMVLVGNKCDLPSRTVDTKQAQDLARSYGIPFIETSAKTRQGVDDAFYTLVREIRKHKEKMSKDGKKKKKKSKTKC

Structure (SMILES) | IC50 [1] [nM] | IC50 [2, 4] [nM] | IC50 [3, 5] [nM] | IC50 [2] [nM] | IC50 [3] [nM]
C=CC(=O)N1CC2(CCN(c3nc(OC4CCN(CC5CCOCC5)CC4)nc4c(OCC(F)(F)F)c(-c5c(C)ccc6[nH]ncc56)c(C=C)cc34)CC2)C1 [Example 44] | 41 | – | – | 5.1 | 7.6
C=CC(=O)N1CC2(CCN(c3nc(OC4CCN(CCN5CCOCC5)CC4)nc4c(OCC(F)(F)F)c(-c5c(C)ccc6[nH]ncc56)c(C5CC5)cc34)CC2)C1 [Example 45] | 38 | – | – | 5.2 | 7.3
C=CC(=O)N1CC2(CCN(c3nc(OC4CCN(CCOC(C)C)CC4)nc4c(OCC(F)(F)F)c(-c5c(C)ccc6[nH]ncc56)c(C=C)cc34)CC2)C1 [Example 47] | 43 | 5.6 | 17 | – | –
C=CC(=O)N1CC2(CCN(c3nc(OC4CCN(CCOC)CC4)nc4c(OC(F)F)c(-c5c(C)ccc6[nH]ncc56)c(C=C)cc34)CC2)C1 [Example 53] | 37 | 6.8 | 9.8 | – | –
C=CC(=O)N1CC2(CCN(c3nc(OC4CCN(C(CF)CF)CC4)nc4c(OCC(F)(F)F)c(-c5c(C)ccc6[nH]ncc56)c(C=C)cc34)CC2)C1 [Example 55] | 83 | 7.4 | 43 | – | –
C=CC(=O)N1CC2(CCN(c3nc(OC4CCN(C)CC4)nc4c(OCc5cccc(OC)c5)c(-c5c(C)ccc6[nH]ncc56)c(C=C)cc34)CC2)C1 [Example 57] | 52 | 8.2 | 39 | – | –
C=CC(=O)N1CC2(CCN(c3nc(OC4CCN(C)CC4)nc4c(OCc5ccc(C)cc5)c(-c5c(C)ccc6[nH]ncc56)c(C=C)cc34)CC2)C1 [Example 58] | 57 | 8.4 | 17 | – | –
C=CC(=O)N1CC2(CCN(c3nc(OC4CCN(CCOC)CC4)nc4c(OCC(F)(F)F)c(-c5c(C)ccc6cn[nH]c56)c(C=C)cc34)CC2)C1 [Example 62] | 37 | 8.8 | 14 | – | –
C=CC(=O)N1CC2(CCN(c3nc(OC4CCN(CCN(CC)CC)CC4)nc4c(OCC(F)(F)F)c(-c5c(C)ccc6[nH]ncc56)c(C=C)cc34)CC2)C1 [Example 67] | 43 | 11 | 18 | – | –

More lines, in order of falling IC50 [1], values ahead:

IC50 [1] [nM] | IC50 [2, 4] [nM] | IC50 [3, 5] [nM] | Structure (SMILES) | IC50 [2] [nM] | IC50 [3] [nM]
98 | 8.8 | 35 | C=CC(=O)N1CC2(CCN(c3nc(OC4CCN(CCC(F)(F)F)CC4)nc4c(OCC(F)(F)F)c(-c5c(C)ccc6[nH]ncc56)c(C=C)cc34)CC2)C1 [Example 60] | – | –
63 | 8.4 | 26 | C=CC(=O)N1CC2(CCN(c3nc(N4CCN(CCOC)CC4)nc4c(OCC(F)(F)F)c(-c5c(C)ccc6[nH]ncc56)c(C=C)cc34)CC2)C1 [Example 59] | – | –
60 | 7.2 | 6.8 | C=CC(=O)N1CC2(CCN(c3nc(OC4CCN(CCC#N)CC4)nc4c(OCC)c(-c5c(C)ccc6[nH]ncc56)c(C5CC5)cc34)CC2)C1 [Example 54] | – | –
56 | 8.8 | 17 | C=CC(=O)N1CC2(CCN(c3nc(OC4CCN(C)CC4)nc4c(OCc5ccccc5)c(-c5c(C)ccc6[nH]ncc56)c(C=C)cc34)CC2)C1 [Example 61] | – | –
54 | 5.9 | 15 | C=CC(=O)N1CC2(CCN(c3nc(OC4CCN(C)CC4C)nc4c(OCC(F)(F)F)c(-c5c(C)ccc6[nH]ncc56)c(C=C)cc34)CC2)C1 (stereo not drawn) [Example 48] | – | –
53 | 6.6 | 14 | C=CC(=O)N1CC2(CCN(c3nc(OC4CCN(C)CC4)nc4c(OCC(C)(F)F)c(-c5c(C)ccc6[nH]ncc56)c(C=C)cc34)CC2)C1 [Example 63] | – | –
48 | 5.5 | 8.1 | C=CC(=O)N1CC2(CCN(c3nc(OC4CCN(CC5CC5)CC4)nc4c(OCC(F)(F)F)c(-c5c(C)ccc6[nH]ncc56)c(C=C)cc34)CC2)C1 [Example 46] | – | –
47 | 9.7 | 39 | C=CC(=O)N1CC2(CCN(c3nc(OC4CCN(C)CC4)nc4c(OCc5ccc(OC(F)F)cc5)c(-c5c(C)ccc6[nH]ncc56)c(C=C)cc34)CC2)C1 [Example 66] | – | –
45 | 12 | 16 | C=CC(=O)N1CC2(CCN(c3nc(NC4CCN(C)CC4)nc4c(OCC(F)(F)F)c(-c5c(C)ccc6[nH]ncc56)c(C=C)cc34)CC2)C1 [Example 68] | – | –
41 | 2.9 | 4.6 | C=CC(=O)N1CC2(CCN(c3nc(OC4CCN(CCOC)CC4)nc4c(OCC(F)(F)F)c(-c5c(C=C)ccc6[nH]ncc56)c(C=C)cc34)CC2)C1 [Example 49] | – | –
32 | 9.1 | 15 | C=CC(=O)N1CC2(CCN(c3nc(O[C@H]4CC[C@@H](N(C)C)CC4)nc4c(OCC(F)(F)F)c(-c5c(C)ccc6[nH]ncc56)c(C=C)cc34)CC2)C1 [Example 64] | – | –

— patent publication US10774082B2, “Quinazoline compound” (Astellas Pharma Inc., priority 2017, dated 2020)
